# According to patent publication US20250327029A1, “PROCESS FOR THE OBTENTION OF INVARIANT NATURAL KILLER T CELLS” (Université de Lorraine, priority 2022, published 2025):
# Tested on: CD4^− iNKT cells
# Experiment: Expansion of iNKT cells from PBMC cultured with alpha-GalCer and a cytokine (IL-15 or IL-2)
# Assay type: cell-based, human
# Method: The expansion factor of iNKT cells is more preferably comprised between 100 and 10 000. The “expansion factor” corresponds to the number of iNKT cells obtained at day 14 of expansion divided by the number of iNKT cells put in culture at day 0. The number of cells is determined by routinely used techniques by the skilled person (cell couting and flow cytometry staining to determine the percentage of iNKT cells among total PBMCs).
# PBMC obtained by centrifugation of fresh whole blood on density gradient were culture at the concentration of 5.10^5 cells/mL in RPMI 1640 advanced medium (ref: 11530446, Gibco®), with 5% SVF v/v, 4 mM glutamine, 100 ng/mL alpha-galactoside-ceramide (KRN-7000, Funakoshi). Cultures were performed in a cell culture bag in a normoxia incubator at 37° C. and 5% CO2.
# On day 1 of culture, 10 ng/mL of IL-15 were added.
# On day 7 of culture, 50% of the medium was changed and 10 ng/mL of IL-15 were introduced.
# On day 10 of the culture, 50% of the medium was changed and 10 ng/mL of IL-15 were introduced.
# On day 14 of the culture, the obtained iNKT cells were sorted by performing a magnetic CD4^+ cell isolation (CD4 MicroBeads kit commercialized by Miltenyi Biotec Inc.), retrieving the negative fraction, performing a magnetic iNKT^+ isolation on said fraction (Anti-iNKT MicroBeads kit commercialized by Miltenyi Biotec Inc.) and retrieving the positive fraction corresponding to the isolated CD4^− iNKT cell population.
substance,measurement,setting,value
IL-15: human cytokine that stimulates the proliferation of T-lymphocytes; Uniprot P40933,mean % CD4^− iNKT cells±SEM,"D14 of culture, n=14",60.6±5.23%
same,mean expansion factor of CD4^− iNKT cells±SEM,"cytokine present during expansion phase, n=17, cells at day 14 / cells at day 0",652±128
same,CD4^− iNKT cells among the expanded iNKT cells,"end of 14-day culture, healthy donor PBMC",61%
same,percentage of iNKT cells at the end of the 14-day culture (% among total T lymphocytes),"healthy donor PBMC, 0.82% iNKT at D0",81.5%
